# In patent US4321381A, “Ergot derivatives” (Farmitalia Carlo Erba S.p.A., priority 1978, dated 1982):
# How the values were obtained:
# [1] = test system: spontaneously hypertensive male rats, strain MHS; test: Anti-hypertensive activity in the spontaneously hypertensive rat (MHS): blood pressure and heart rate at the tail; type: in vivo
# Description: 1. Spontaneously Hypertensive Rat (MHS)
# Four spontaneously hypertensive male rats, strain MHS, weight 250 to 300 g for each group were used. The animals were treated for four consecutive days. The drugs were administered by gastric gavage while suspended in 5% arabic gum (0.2 ml/100 g body weight), and blood pressure (BP) and heart rate (HR) were measured at the tail by BP Recorder W+W. Blood pressure and heart rate were measured on the first and fourth day of treatment 1 hour before and 1 and 5 hours after drug administration.
# [2] = test system: normotensive rats; test: Blood pressure and heart rate in the conscious normotensive rat (NR); type: in vivo; conditions: 5 mg/kg os
# Description: Blood pressure recordings have been made in conscious normotensive unrestrained rats weighing approximately 300 g, via a catheter chronically inserted into the left common carotid artery. Implantation of arterial cannula was made under sodium pentobarbital anesthesia (50 mg/kp i.p.) A 1 cm long incision was made through the previously shaved ventral surface of the neck and the tissues overlying the trachea parted by blunt dissection to reveal the carotid artery. The polyethylene catheter used was made with PE 50 tubing, previously filled with saline containing 250 I.U./ml heparin. The tip of the cannula was pushed at least 2 cm inside the vessel toward the heart. The cannula was then firmly tied and passed beneath the skin to emerge from a small incision in the back of the neck. During the post-operative period and before the start of each recording session, the cannula was flushed through daily with saline containing heparin (250 I.U./ml). The experiments were performed two days after surgery. Drugs were administered by gastric gavage.
# [3] = Acute toxicity (LD50) in mice; type: in vivo, mouse; conditions: mouse, in vivo; male mice; oral; observed for seven days
# Description: Evaluation of the Toxicity (LD50)
# Ten male mice for each group were orally treated with drugs at different dose levels for the determination of lethal dose 50 (LD50).
compound,measurement,setting,value
"CN1C[C@H](CC(C#N)C(N)=O)C[C@@H]2c3cccc4[nH]cc(c34)C[C@H]21 (stereo partly drawn) [355/1057, 2-Cyano-3-(6'-methylergoline-8'β)-propionamide]","Change in BP, 1 hr after dose, first day",[1]; 2 mg/kg os,-25 mm Hg
same,"Change in HR, 1 hr after dose, first day",[1]; 2 mg/kg os,0 b/min
same,"Change in HR, 5 hr after dose, first day",[1]; 2 mg/kg os,-8 b/min
same,"Change in BP, 5 hrs after dose, first day",[1]; 2 mg/kg os,0 mm Hg
same,"Change in BP, 1 hr after dose, fourth day",[1]; 2 mg/kg os,-26 mm Hg
same,"Change in HR, 1 hr after dose, fourth day",[1]; 2 mg/kg os,-2 b/min
same,"Change in HR, 5 hr after dose, fourth day",[1]; 2 mg/kg os,-5 b/min
same,"Change in BP, 5 hrs after dose, fourth day",[1]; 2 mg/kg os,-31 mm Hg
same,"Change in BP, 1 hr after dose, first day",[1]; 5 mg/kg os,-51 mm Hg
same,"Change in HR, 1 hr after dose, first day",[1]; 5 mg/kg os,+5 b/min
same,"Change in HR, 5 hr after dose, first day",[1]; 5 mg/kg os,+35 b/min
same,"Change in BP, 5 hrs after dose, first day",[1]; 5 mg/kg os,-41 mm Hg
same,"Change in BP, 1 hr after dose, fourth day",[1]; 5 mg/kg os,-45 mm Hg
same,"Change in HR, 1 hr after dose, fourth day",[1]; 5 mg/kg os,+25 b/min
same,"Change in HR, 5 hr after dose, fourth day",[1]; 5 mg/kg os,+20 b/min
same,"Change in BP, 5 hrs after dose, fourth day",[1]; 5 mg/kg os,-31 mm Hg
same,"Change in Blood Pressure after Treatment, 30'",[2]; 30',-23 mm Hg
same,"Change in heart rate after treatment, 30'",[2]; 30',-25 b/min
same,"Change in Blood Pressure after Treatment, 60'",[2]; 60',-23 mm Hg
same,"Change in heart rate after treatment, 60'",[2]; 60',-40 b/min
same,"Change in Blood Pressure after Treatment, 120'",[2]; 120',-22 mm Hg
same,"Change in heart rate after treatment, 120'",[2]; 120',-42 b/min
same,"Change in Blood Pressure after Treatment, 180'",[2]; 180',-21.7 mm Hg
same,"Change in heart rate after treatment, 180'",[2]; 180',-22 b/min
same,"Change in Blood Pressure after Treatment, 240'",[2]; 240',-23 mm Hg
same,"Change in heart rate after treatment, 240'",[2]; 240',+10 b/min
same,"Change in Blood Pressure after Treatment, 360'",[2]; 360',-20 mm Hg
same,"Change in heart rate after treatment, 360'",[2]; 360',+3 b/min
same,"Change in Blood Pressure after Treatment, 24h",[2]; 24h,-12 mm Hg
same,"Change in heart rate after treatment, 24h",[2]; 24h,+6 b/min
same,LD50 at 168 h,[3],> 1000 mg/kg
"C=CCN1C[C@H](CC(C#N)C(N)=O)C[C@@H]2c3cccc4[nH]cc(c34)C[C@H]21 (stereo partly drawn) [355/1266, 2-Cyano-3-(6'-allylergoline-8'β)-propionamide]","Change in BP, 1 hr after dose, first day",[1]; 2 mg/kg os,-14 mm Hg
same,"Change in BP, 5 hrs after dose, first day",[1]; 2 mg/kg os,-15 mm Hg
same,"Change in BP, 1 hr after dose, fourth day",[1]; 2 mg/kg os,-25 mm Hg
same,"Change in BP, 5 hrs after dose, fourth day",[1]; 2 mg/kg os,-45 mm Hg
same,"Change in BP, 1 hr after dose, first day",[1]; 5 mg/kg os,-14 mm Hg
same,"Change in BP, 5 hrs after dose, first day",[1]; 5 mg/kg os,-10 mm Hg
same,"Change in BP, 1 hr after dose, fourth day",[1]; 5 mg/kg os,-35 mm Hg
same,"Change in BP, 5 hrs after dose, fourth day",[1]; 5 mg/kg os,-60 mm Hg
"CCCN1C[C@H](CC(C#N)C(=O)NCC)C[C@@H]2c3cccc4[nH]cc(c34)C[C@H]21 (stereo partly drawn) [355/1281, 2-Cyano-3-(6'-n-propylergoline-8'β)-N-ethyl-propionamide]","Change in BP, 1 hr after dose, first day",[1]; 5 mg/kg os,-25 mm Hg
same,"Change in BP, 5 hrs after dose, first day",[1]; 5 mg/kg os,-15 mm Hg
same,"Change in BP, 1 hr after dose, fourth day",[1]; 5 mg/kg os,-30 mm Hg
same,"Change in BP, 5 hrs after dose, fourth day",[1]; 5 mg/kg os,-35 mm Hg
"CCCN1C[C@H](CC(C#N)C(N)=O)C[C@@H]2c3cccc4[nH]cc(c34)C[C@H]21 (stereo partly drawn) [355/1282, 2-Cyano-3-(6'n-propylergoline-8'β)-propionamide]","Change in BP, 1 hr after dose, first day",[1]; 2 mg/kg os,-20 mm Hg
same,"Change in BP, 5 hrs after dose, first day",[1]; 2 mg/kg os,-10 mm Hg
same,"Change in BP, 1 hr after dose, fourth day",[1]; 2 mg/kg os,-15 mm Hg
same,"Change in BP, 5 hrs after dose, fourth day",[1]; 2 mg/kg os,-25 mm Hg
same,"Change in BP, 1 hr after dose, first day",[1]; 5 mg/kg os,-40 mm Hg
same,"Change in BP, 5 hrs after dose, first day",[1]; 5 mg/kg os,-45 mm Hg
same,"Change in BP, 1 hr after dose, fourth day",[1]; 5 mg/kg os,-25 mm Hg
same,"Change in BP, 5 hrs after dose, fourth day",[1]; 5 mg/kg os,-30 mm Hg
"C=CCN1C[C@H](CC(C#N)C(=O)NCC)C[C@@H]2c3cccc4[nH]cc(c34)C[C@H]21 (stereo partly drawn) [355/1320, 2-Cyano-3-(6'-allylergoline-8'β)-N-ethylpropionamide]","Change in BP, 1 hr after dose, first day",[1]; 5 mg/kg os,-30 mm Hg
same,"Change in BP, 5 hrs after dose, first day",[1]; 5 mg/kg os,-20 mm Hg
same,"Change in BP, 1 hr after dose, fourth day",[1]; 5 mg/kg os,-20 mm Hg
same,"Change in BP, 5 hrs after dose, fourth day",[1]; 5 mg/kg os,-15 mm Hg
